# How the values were obtained:
# [1] = tested on: serum interleukins IL1β, IL-8, IL-13, tumor necrosis factor or interferon-gamma; conditions: pigs, 3.3-3.8 ppm DON in feed (Pasternak et al. 2018); cited from earlier work
# [2] = pigs, cited from earlier work
# [3] = tested on: miRNA expression profiles in liver and jejunum; design: species or system Sus scrofa; conditions: in vivo
# [4] = tested on: ssc-miR-16, ssc-miR-128, ssc-miR-205 and ssc-miR-451 in serum; design: species or system Sus scrofa; conditions: in vivo
# [5] = tested on: insulin like growth factor 1 (IGF1); conditions: serum levels of growth hormones (Wang et al. 2019; Wu et al. 2013, 2015); cited from earlier work
# [6] = tested on: miRNAs in serum; design: species or system Sus scrofa; conditions: in vivo
structure (smiles),measurement,setting,value
"CC1=C[C@H]2O[C@@H]3[C@H](O)C[C@](C)([C@@]2(CO)[C@H](O)C1=O)[C@]31CO1 [DON, (3α,7α)-3,7,15-trihydroxy-12,13-epoxytrichothec-9-en-8-one]","effect on serum interleukins IL1β, IL-8, IL-13, tumor necrosis factor or interferon-gamma",[1],had no effect
same,doses of DON in feed starting from which feed consumption and weight gain decrease,[2]; EFSA summary of multiple feeding trials,0.6-2.0 ppm
same,effect on body weight at 3 ppm DON,"[2]; exposure to 3 ppm DON (Grenier et al. 2011, 2013)",does not necessarily result in significant effects on body weight
same,"differentially expressed miRNAs in liver, Control vs DON high",[3],"one differentially expressed miRNA, namely ssc-miR-10b"
same,"differentially expressed miRNAs in tissues, Control vs DON low",[3],no differentially expressed miRNAs
same,effect on the miRNA expression profiles in liver and jejunum,[3],did not exhibit a strong effect
same,ssc-miR-16 normalized Cq-value log 2 fold change in the DON groups compared to the Control,[4],increased
same,"ssc-miR-16 qPCR log2 fold change, DON_high vs Control",[4],2.227
same,"ssc-miR-16 qPCR log2 fold change, DON_low vs Control",[4],3.504
same,ssc-miR-128 normalized Cq-value log 2 fold change in the DON groups compared to the Control,[4],increased
same,"ssc-miR-128 qPCR log2 fold change, DON_high vs Control",[4],1.879
same,"ssc-miR-128 qPCR log2 fold change, DON_low vs Control",[4],3.885
same,ssc-miR-205 normalized Cq-value log 2 fold change in the DON groups compared to the Control,[4],increased
same,"ssc-miR-205 qPCR log2 fold change, DON_high vs Control",[4],2.455
same,"ssc-miR-205 qPCR log2 fold change, DON_low vs Control",[4],4.973
same,ssc-miR-451 normalized Cq-value log 2 fold change in the DON groups compared to the Control,[4],increased
same,"ssc-miR-451 qPCR log2 fold change, DON_high vs Control",[4],1.835
same,"ssc-miR-451 qPCR log2 fold change, DON_low vs Control",[4],2.663
same,dietary DON concentrations at which a decrease of serum IGF1 was reported,[5],≥ 3 ppm
same,number of serum miRNAs significantly altered in both DON low and DON high,[6],eight
same,"number of serum miRNAs significantly altered, DON high vs Control",[6],16
same,"number of serum miRNAs significantly altered, DON low vs Control",[6],15
same,"ssc-let-7a Log2 fold vs Control, DON high",[6],−0.502
same,"ssc-let-7a Log2 fold vs Control, DON low",[6],n.s.
same,"ssc-let-7f-5p Log2 fold vs Control, DON high",[6],−0.503
same,"ssc-let-7f-5p Log2 fold vs Control, DON low",[6],n.s.
same,"ssc-let-7g Log2 fold vs Control, DON high",[6],0.662
same,"ssc-let-7g Log2 fold vs Control, DON low",[6],n.s.
same,"ssc-miR-10a-5p Log2 fold vs Control, DON high",[6],n.s.
same,"ssc-miR-10a-5p Log2 fold vs Control, DON low",[6],−0.806
same,"ssc-miR-10b Log2 fold vs Control, DON high",[6],−0.754
same,"ssc-miR-10b Log2 fold vs Control, DON low",[6],−1.129
same,ssc-miR-10b direction of change in serum upon DON treatment,[6],down-regulated
same,"ssc-miR-16 Log2 fold vs Control, DON high",[6],0.773
same,"ssc-miR-16 Log2 fold vs Control, DON low",[6],1.217
same,ssc-miR-16 direction of change in serum of DON exposed pigs,[6],up-regulated
same,"ssc-miR-17-5p Log2 fold vs Control, DON high",[6],1.194
same,"ssc-miR-17-5p Log2 fold vs Control, DON low",[6],n.s.
same,"ssc-miR-92a Log2 fold vs Control, DON high",[6],0.476
same,"ssc-miR-92a Log2 fold vs Control, DON low",[6],n.s.
same,"ssc-miR-92b-3p Log2 fold vs Control, DON high",[6],n.s.
same,"ssc-miR-92b-3p Log2 fold vs Control, DON low",[6],−1.058
same,"ssc-miR-99b Log2 fold vs Control, DON high",[6],−1.226
same,"ssc-miR-99b Log2 fold vs Control, DON low",[6],−1.393
same,ssc-miR-99b direction of change in serum upon DON treatment,[6],down-regulated
same,"ssc-miR-103 Log2 fold vs Control, DON high",[6],−0.630
same,"ssc-miR-103 Log2 fold vs Control, DON low",[6],n.s.
same,"ssc-miR-107 Log2 fold vs Control, DON high",[6],−0.619
same,"ssc-miR-107 Log2 fold vs Control, DON low",[6],n.s.
same,"ssc-miR-126-5p Log2 fold vs Control, DON high",[6],n.s.
same,"ssc-miR-126-5p Log2 fold vs Control, DON low",[6],−1.298
same,"ssc-miR-128 Log2 fold vs Control, DON high",[6],0.887
same,"ssc-miR-128 Log2 fold vs Control, DON low",[6],1.124
same,ssc-miR-128 direction of change in serum of DON exposed pigs,[6],up-regulated
same,"ssc-miR-148a-3p Log2 fold vs Control, DON high",[6],0.521
same,"ssc-miR-148a-3p Log2 fold vs Control, DON low",[6],n.s.
same,"ssc-miR-192 Log2 fold vs Control, DON high",[6],−0.928
same,"ssc-miR-192 Log2 fold vs Control, DON low",[6],−1.133
same,ssc-miR-192 direction of change in serum upon DON treatment,[6],down-regulated
same,"ssc-miR-205 Log2 fold vs Control, DON high",[6],5.102
same,"ssc-miR-205 Log2 fold vs Control, DON low",[6],5.774
same,ssc-miR-205 direction of change in serum of DON exposed pigs,[6],up-regulated
same,"ssc-miR-339-5p Log2 fold vs Control, DON high",[6],n.s.
same,"ssc-miR-339-5p Log2 fold vs Control, DON low",[6],1.346
same,"ssc-miR-339 Log2 fold vs Control, DON high",[6],n.s.
same,"ssc-miR-339 Log2 fold vs Control, DON low",[6],1.345
same,"ssc-miR-361-3p Log2 fold vs Control, DON high",[6],n.s.
same,"ssc-miR-361-3p Log2 fold vs Control, DON low",[6],2.023
same,"ssc-miR-374a-3p Log2 fold vs Control, DON high",[6],−1.443
same,"ssc-miR-374a-3p Log2 fold vs Control, DON low",[6],−1.271
same,ssc-miR-374a-3p direction of change in serum upon DON treatment,[6],down-regulated
same,"ssc-miR-451 Log2 fold vs Control, DON high",[6],0.808
same,"ssc-miR-451 Log2 fold vs Control, DON low",[6],1.375
same,ssc-miR-451 direction of change in serum of DON exposed pigs,[6],up-regulated
same,"ssc-miR-1388 Log2 fold vs Control, DON high",[6],n.s.
same,"ssc-miR-1388 Log2 fold vs Control, DON low",[6],−1.281

# From US20240368694A1 (priority 2021, published 2024)
